Reference: the NIST ThermoML archive (doi:10.1021/je400055v)
Numbers after ± are expanded uncertainties.

Settings: Liquid, Vibrating tube method

For `Cc1ccc(O)cc1` [4-methylphenol], the mass density (342.37 K, 1001 kPa) was 995.7 ± 0.2 kg/m3, the mass density (342.37 K, 2002 kPa) was 996.4 ± 0.2 kg/m3 and the mass density (342.37 K, 3004 kPa) was 997.1 ± 0.2 kg/m3. For the same molecule, the mass density (342.37 K, 4025 kPa) was 997.7 ± 0.2 kg/m3, the mass density (342.37 K, 5036 kPa) was 998.2 ± 0.2 kg/m3 and the mass density (342.37 K, 6032 kPa) was 998.8 ± 0.2 kg/m3. For the same molecule, the mass density (342.37 K, 7001 kPa) was 999.3 ± 0.2 kg/m3, the mass density (342.37 K, 8020 kPa) was 999.9 ± 0.2 kg/m3 and the mass density (342.37 K, 9003 kPa) was 1000.6 ± 0.2 kg/m3. It also gave a mass density (342.37 K, 10002 kPa) of 1001.3 ± 0.2 kg/m3, a mass density (342.37 K, 11036 kPa) of 1001.9 ± 0.2 kg/m3 and a mass density (342.37 K, 12001 kPa) of 1002.6 ± 0.2 kg/m3. It also gave a mass density (342.37 K, 13020 kPa) of 1003.2 ± 0.2 kg/m3, a mass density (342.37 K, 14019 kPa) of 1003.9 ± 0.2 kg/m3 and a mass density (342.37 K, 15007 kPa) of 1004.5 ± 0.2 kg/m3. For the same molecule, the mass density (342.37 K, 16000 kPa) was 1005.1 ± 0.2 kg/m3, the mass density (342.37 K, 17022 kPa) was 1005.6 ± 0.2 kg/m3 and the mass density (342.37 K, 18014 kPa) was 1006.2 ± 0.2 kg/m3. The mass density (342.37 K, 19033 kPa) was 1006.8 ± 0.2 kg/m3, the mass density (342.37 K, 20005 kPa) was 1007.4 ± 0.2 kg/m3 and the mass density (342.37 K, 21005 kPa) was 1007.9 ± 0.2 kg/m3. It also gave a mass density (342.37 K, 22010 kPa) of 1008.4 ± 0.2 kg/m3, a mass density (342.37 K, 22962 kPa) of 1009 ± 0.2 kg/m3 and a mass density (342.37 K, 24021 kPa) of 1009.7 ± 0.2 kg/m3. For the same molecule, the mass density (342.37 K, 25017 kPa) was 1010.2 ± 0.2 kg/m3, the mass density (352.15 K, 1023 kPa) was 987.9 ± 0.2 kg/m3 and the mass density (352.15 K, 2007 kPa) was 988.5 ± 0.2 kg/m3. For the same molecule, the mass density (352.15 K, 3000 kPa) was 989.1 ± 0.2 kg/m3, the mass density (352.15 K, 4003 kPa) was 989.8 ± 0.2 kg/m3 and the mass density (352.15 K, 5001 kPa) was 990.4 ± 0.2 kg/m3. The mass density (352.15 K, 6009 kPa) was 991.1 ± 0.2 kg/m3, the mass density (352.15 K, 7001 kPa) was 991.7 ± 0.2 kg/m3 and the mass density (352.15 K, 8037 kPa) was 992.4 ± 0.2 kg/m3. The mass density (352.15 K, 9008 kPa) was 993 ± 0.2 kg/m3, the mass density (352.15 K, 10040 kPa) was 993.7 ± 0.2 kg/m3 and the mass density (352.15 K, 11006 kPa) was 994.3 ± 0.2 kg/m3. It also gave a mass density (352.15 K, 12001 kPa) of 994.9 ± 0.2 kg/m3, a mass density (352.15 K, 13001 kPa) of 995.5 ± 0.2 kg/m3 and a mass density (352.15 K, 14009 kPa) of 996.2 ± 0.2 kg/m3. The mass density (352.15 K, 15000 kPa) was 996.8 ± 0.2 kg/m3, the mass density (352.15 K, 16010 kPa) was 997.4 ± 0.2 kg/m3 and the mass density (352.15 K, 17028 kPa) was 998 ± 0.2 kg/m3. For the same molecule, the mass density (352.15 K, 18020 kPa) was 998.6 ± 0.2 kg/m3, the mass density (352.15 K, 19045 kPa) was 999.3 ± 0.2 kg/m3 and the mass density (352.15 K, 20018 kPa) was 1000 ± 0.2 kg/m3. It also gave a mass density (352.15 K, 21038 kPa) of 1000.5 ± 0.2 kg/m3, a mass density (352.15 K, 22000 kPa) of 1001.1 ± 0.2 kg/m3 and a mass density (352.15 K, 23065 kPa) of 1001.8 ± 0.2 kg/m3. For the same molecule, the mass density (352.15 K, 24024 kPa) was 1002.4 ± 0.2 kg/m3, the mass density (352.15 K, 25039 kPa) was 1002.9 ± 0.2 kg/m3 and the mass density (361.9 K, 1017 kPa) was 979.6 ± 0.2 kg/m3. It also gave a mass density (361.9 K, 1991 kPa) of 980.3 ± 0.2 kg/m3, a mass density (361.9 K, 3004 kPa) of 981 ± 0.2 kg/m3 and a mass density (361.9 K, 4027 kPa) of 981.5 ± 0.2 kg/m3. For the same molecule, the mass density (361.9 K, 4992 kPa) was 982.3 ± 0.2 kg/m3, the mass density (361.9 K, 6000 kPa) was 983.1 ± 0.2 kg/m3 and the mass density (361.9 K, 7033 kPa) was 983.6 ± 0.2 kg/m3. It also gave a mass density (361.9 K, 8010 kPa) of 984.4 ± 0.2 kg/m3, a mass density (361.9 K, 9001 kPa) of 985 ± 0.2 kg/m3 and a mass density (361.9 K, 9998 kPa) of 985.8 ± 0.2 kg/m3. It also gave a mass density (361.9 K, 10994 kPa) of 986.5 ± 0.2 kg/m3, a mass density (361.9 K, 11976 kPa) of 987 ± 0.2 kg/m3 and a mass density (361.9 K, 12949 kPa) of 987.7 ± 0.2 kg/m3. The mass density (361.9 K, 14010 kPa) was 988.3 ± 0.2 kg/m3, the mass density (361.9 K, 15017 kPa) was 989 ± 0.2 kg/m3 and the mass density (361.9 K, 15992 kPa) was 989.6 ± 0.2 kg/m3. It also gave a mass density (361.9 K, 16992 kPa) of 990.3 ± 0.2 kg/m3, a mass density (361.9 K, 18007 kPa) of 990.8 ± 0.2 kg/m3 and a mass density (361.9 K, 19034 kPa) of 991.6 ± 0.2 kg/m3. It also gave a mass density (361.9 K, 19992 kPa) of 992.1 ± 0.2 kg/m3, a mass density (361.9 K, 21000 kPa) of 992.9 ± 0.2 kg/m3 and a mass density (361.9 K, 22059 kPa) of 993.4 ± 0.2 kg/m3. The mass density (361.9 K, 23020 kPa) was 994.1 ± 0.2 kg/m3, the mass density (361.9 K, 24014 kPa) was 994.8 ± 0.2 kg/m3 and the mass density (361.9 K, 25002 kPa) was 995.3 ± 0.2 kg/m3.
